Where a name gives a salt, the structure may show the parent alone. Read-outs that look alike come from different tables or passages of the source.
Experiments:
[1] = test system: activated platelets (125I-fibrinogen binding); experiment: Fibrinogen Binding (125I-fibrinogen binding to activated platelets); conditions: read-out: Binding (IC50, concentration of compound which provides 50% fibrinogen binding); thrombin-stimulated platelets; 0.15 μM 125I-fibrinogen
Protocol: The compounds of the invention as identified above are evaluated for platelet aggregation inhibition activity as indicated by the percentage of nonaggregated platelets which are available for binding in accordance with the following procedure.
Briefly, 40 mL of PRP (obtained from Biological Specialty Corp., Lansdale, Pa.) are centrifuged at 120×g to remove contaminating red cells. Aspirin (50 μM) is added and the PRP is incubated at 37° C. for 20 minutes. […] Platelets are concentrated by a 300×g centrifugation (10 minutes) and the pellet is resuspended in 4 mL. of Tyrode's buffer. The platelet suspension (4 mL) is gel-filtered through a Sepharose-2B column (50 mL bed volume). […] The binding reaction is performed in polystyrene tubes (final volume […]). Reagents are added in the following order: 80 mL of Tyrode's buffer, 50 mL of CaCl2 (final concentration (f.c.) […]) and 50 mL of thrombin (f.c. 0.1 unit/mL). The platelet suspension is then added and the mixture is allowed to incubate at room temperature for 2 minutes. Hirudin (50 mL, f.c. 0.5 unit/mL) is immediately added to prevent the catalytic activity of thrombin. […] The mixture is incubated for 10 minutes at room temperature. To terminate the binding reaction the platelets are sedimented (10,000×g for 3 minutes) through silicone oil (3:1 hi-phenol 550/methyl silicone 200, W. F. Nye, Inc., New Bedford, Mass.), in an Eppendorf centrifuge.
The amount of platelet radioactivity measured in the presence of nonlabeled fibrinogen (4 mg/mL) is considered the nonspecific binding. All samples are repeated in triplicate.
Positive percentages of fibrinogen binding indicates higher activity for inhibiting platelet aggregation since only non-aggregated or free platelets are available for fibrinogen binding.

[2] = test system: platelets (gel-filtered platelet rich plasma); experiment: Platelet Aggregation Inhibition Activity (agonist thrombin or ADP, light transmission); type: cell-based; conditions: for inhibition at 20 µM: Homo sapiens, thrombin or ADP agonist, read-out: Aggregation (percentage increase in light transmission)
Protocol: The percentage of platelet aggregation is calculated as an increase in light transmission of drug treated platelet concentrate versus control treated platelet concentrate. Blood is obtained from drug free, normal donors into tubes containing 0.13M sodium citrate (two sources are routinely used: platelet concentrate obtained from Biological Specialty Corp., Lansdale, Pa. or whole blood obtained from donors). Platelet rich plasma (PRP) is collected by centrifugation of the concentrate or whole blood at 130×g for 15 minutes at 25° C. The PRP (5 mL) is gel filtered through Sepharose 2B (bed volume 50 mL), and the platelet count is adjusted to 2×10^7 platelets per sample. The following constituents are added to a siliconized cuvette: 250 μL of the concentrated platelet filtrate, 100 μL of Tyrode's buffer (0.14M NaCl, 0.0027M KCl, 0.012M NaHCO3, 0.76 mM Na2 HPO4, 0.0055M glucose and 2 mg/mL BSA pH 7.4), 50 μL of 2 mM calcium and test drug (50 mL).
Aggregation is monitored in a dual channel Chrono-log Aggregometer for three minutes following the addition of agonist (thrombin 50 μL of 1 unit/mL, or ADP 50 μL of 100 μM). The final assay volume is 500 μL. The reaction takes place at 37° C. The peak aggregation response is calculated as the increase in light transmission units over a three minute period. The difference of the increase in light transmission between control and drug treated platelets is then expressed as a percent of the nondrug treated controls. […] A percentage increase in light transmission indicates platelet aggregation inhibition activity for the tested compound.

[3] = read-out: Aggregation (IC50, concentration at which the increase in light transmission equals 50%), thrombin or ADP agonist, 37° C., three minutes

Compound | IC50 [1] [µM] | IC50 ([2]; read-out: Aggregation (IC50, concentration at which the increase in light transmission equals 50%)) [µM] | IC50 [2, 3] [µM] | inhibition at 20 µM [2] [%]
N=C(N)NCCCNC(=O)c1cnn(-c2nc(-c3cccc(C(F)(F)F)c3)cs2)c1C(F)(F)F [Example 128, 2-[4-(3-Guanidinopropylcarbamoyl)-5-(trifluoromethyl)-pyrazol-1-yl]-4-(3-trifluoromethylphenyl)thiazole Nitrate] | 17.5 | 118 | – | –
CCN(CC)CCCNC(=O)c1ccc(-c2csc(-c3ccc(C(C)(C)C)cc3)n2)cc1 [Example 153] | 4.3 | – | 15.3 | –
CCCCN(CCCC)CCCNC(=O)c1cnn(-c2nc(-c3ccc(C)cc3)cs2)c1C(F)(F)F [Example 45] | 8.5 | – | 45 | –
CCN(CC)CCCNC(=O)c1cnn(-c2nc(-c3cccc(C(F)(F)F)c3)cs2)c1C(F)(F)F [Example 37] | 4 | – | 15 | –
NCCCCNC(=O)c1cnn(-c2nc(-c3cccc(C(F)(F)F)c3)cs2)c1C(F)(F)F [Example 62] | 8.3 | – | 4.6 | –
CCCNCCCNC(=O)c1ccc(-c2csc(-c3ccc(C(F)(F)F)cc3)n2)cc1 [Example 221] | 5.8 | – | – | 85
O=C(NCCCNC1CCCCC1)c1ccc(-c2csc(-c3ccc(Cl)cc3)n2)cc1 [Example 213] | 9.2 | – | 10 | –
Cc1ccc(-c2csc(-n3ncc(C(=O)NCCCN)c3C(F)(F)F)n2)cc1 [Example 123] | 17 | – | 17 | –
O=C(NCCCBr)c1ccc(-c2csc(-c3ccc(C(F)(F)F)cc3)n2)cc1 [Example 209] | 7.8 | – | 5.5 | –
CCN(CC)CCCNC(=O)c1cnn(-c2nc(-c3ccc(C)cc3)cs2)c1C(F)(F)F [Example 43] | 70 | – | 6 | –
CN(C)CCNC(=O)c1ccc(-c2csc(-c3ccc(C(F)(F)F)cc3)n2)cc1 [Example 174] | 1.8 | – | – | 85
NCCCNC(=O)c1cnn(-c2nc(-c3cccc(C(F)(F)F)c3)c(Br)s2)c1C(F)(F)F [Example 124] | 5.5 | – | 3.2 | –
NCCCNC(=O)c1cnn(-c2nc(-c3cccc(Cl)c3)cs2)c1C(F)(F)F [Example 122] | 10 | – | 14.7 | –
O=C(NCCCNC1CCCCC1)c1cnn(-c2nc(-c3ccc(C(F)(F)F)cc3)cs2)c1C(F)(F)F [Example 105] | 44 | – | 8 | –
O=C(NCCN1CCCCC1)c1ccc(-c2csc(-c3ccccc3)n2)cc1 [Example 158] | 5.2 | – | 8.7 | –
CCCCN(CCCC)CCCNC(=O)c1cnn(-c2nc(-c3cccc(C(F)(F)F)c3)cs2)c1C(F)(F)F [Example 38] | 75 | – | 56 | –
FC(F)(F)c1cccc(-c2csc(-n3ncc(COCCCN4CCCCC4)c3C(F)(F)F)n2)c1 [Example 136, 2-[4-[3-(N-Piperidino)propoxymethyl]-5-(trifluoromethyl)pyrazol-1-yl]-4-(3-trifluoromethylphenyl)thiazole Oxalate] | 17 | – | 21 | –
Cc1ccc(-c2nc(-c3ccc(C(=O)NCCCN4CCCC4=O)cc3)cs2)cc1 [Example 170] | 10.8 | – | – | 90
O=C(NCCCN1CCCCC1)c1cnn(-c2nc(-c3cccc(C(F)(F)F)c3)cs2)c1C(F)(F)F [Example 89, 2-[4-[3-(N-Piperidino)propylcarbamoyl]-5-(trifluoromethyl)pyrazol-1-yl]-4-(3-trifluoromethylphenyl)thiazole] | 10 | – | 13 | –
O=C(NCCCNC1CCCCC1)c1cnn(-c2nc(-c3cccc(C(F)(F)F)c3)cs2)c1C(F)(F)F [Example 102] | 25 | – | 6 | –
CCN(CC)CCCCNC(=O)c1ccc(-c2csc(-c3ccc(Cl)cc3)n2)cc1 [Example 179] | 2.7 | – | 5.8 | –
